According to patent US7265130B2, “NPY Y5 antagonist” (Shionogi & Co., Ltd., priority 1999, dated 2007):

Experiments:
NPY Y1 receptor = target: T1, NPY Y1 receptor (Homo sapiens, UniProt P25929); test: Affinity for NPY Y1 receptor (membranes from SK-N-MC cells); details: membranes from Y1-expression cells (human neuroblastoma, SK-N-MC); read-out: Binding IC50 for NPY Y1 receptor
T1 construct: membranes prepared from Y1-expression cells (human neuroblastoma, SK-N-MC); endogenous in cells; host or cells: SK-N-MC human neuroblastoma cells (membranes)
T1 sequence (P25929 1-384): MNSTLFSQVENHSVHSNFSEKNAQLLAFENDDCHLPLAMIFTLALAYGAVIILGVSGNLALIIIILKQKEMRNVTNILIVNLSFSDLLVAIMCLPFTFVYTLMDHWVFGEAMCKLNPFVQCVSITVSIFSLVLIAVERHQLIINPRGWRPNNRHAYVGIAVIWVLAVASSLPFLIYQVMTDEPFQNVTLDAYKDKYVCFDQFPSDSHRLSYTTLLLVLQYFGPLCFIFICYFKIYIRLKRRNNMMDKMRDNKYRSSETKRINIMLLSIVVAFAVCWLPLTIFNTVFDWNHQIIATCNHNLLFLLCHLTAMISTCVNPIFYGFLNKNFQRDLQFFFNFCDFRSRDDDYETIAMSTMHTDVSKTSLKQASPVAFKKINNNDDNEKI
Protocol: (§1) The membranes prepared from the above CHO cells expressing NPY Y5 receptor, the compound of the present invention and 30,000 cpm [^125I] peptide YY (60 pM of final concentration: Amersham) were incubated in the assay buffer (20 mM HEPES-Hanks buffer containing 0.1% bovine serum albumin, pH 7.4) at 25° C. for 2 hours, and then the mixture was filtered with a glassfilter GF/C treated with polyethyleneimine. After the glassfilter was washed with 50 mM Tris-HCl buffer (pH 7.4), the radioactivity on the filter was measured with a gamma counter. The non-specific binding was detected in the presence of 200 nM of peptide YY. The 50% inhibitory concentration of the test compound against the specific peptide YY binding (IC50 value) was calculated (Inui, A. et al. Endocrinology 131, 2090-2096 (1992)).
(§2) Using the membranes prepared from Y1-expression cells (human neuroblastoma, SK-N-MC) and the membranes prepared from Y2-expression cells (human neuroblastoma, SMS-KAN), the experiment was carried out in a similar way as Experiment 1 to determine the affinity for NPY Y1 receptor and NPY Y2 receptor.

NPY Y2 receptor = target: T2, NPY Y2 receptor (Homo sapiens, UniProt P49146); test: Affinity for NPY Y2 receptor (membranes from SMS-KAN cells); details: membranes from Y2-expression cells (human neuroblastoma, SMS-KAN); read-out: Binding IC50 for NPY Y2 receptor
T2 construct: membranes prepared from Y2-expression cells (human neuroblastoma, SMS-KAN); endogenous in cells; host or cells: SMS-KAN human neuroblastoma cells (membranes)
T2 sequence (P49146 1-381): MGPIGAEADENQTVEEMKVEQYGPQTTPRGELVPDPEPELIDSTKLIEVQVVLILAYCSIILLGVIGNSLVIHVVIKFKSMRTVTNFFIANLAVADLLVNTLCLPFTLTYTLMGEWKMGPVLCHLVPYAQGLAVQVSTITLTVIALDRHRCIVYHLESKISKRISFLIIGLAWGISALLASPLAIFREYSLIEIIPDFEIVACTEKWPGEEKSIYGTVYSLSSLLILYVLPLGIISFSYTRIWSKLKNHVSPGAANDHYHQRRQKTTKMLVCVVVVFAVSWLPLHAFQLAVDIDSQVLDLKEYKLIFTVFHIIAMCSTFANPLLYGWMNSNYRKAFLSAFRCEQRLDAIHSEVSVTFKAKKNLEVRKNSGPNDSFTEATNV
Protocol: as §1, §2

human NPY Y5 receptor [1] = target: T3, human NPY Y5 receptor (Homo sapiens, UniProt Q15761); test: Affinity for NPY Y5 receptor ([125I] peptide YY binding, CHO cell membranes); details: inhibition of specific [125I] peptide YY binding, membranes of CHO cells expressing NPY Y5 receptor
T3 construct: expressed in transfected cells
T3 sequence (Q15761 1-445): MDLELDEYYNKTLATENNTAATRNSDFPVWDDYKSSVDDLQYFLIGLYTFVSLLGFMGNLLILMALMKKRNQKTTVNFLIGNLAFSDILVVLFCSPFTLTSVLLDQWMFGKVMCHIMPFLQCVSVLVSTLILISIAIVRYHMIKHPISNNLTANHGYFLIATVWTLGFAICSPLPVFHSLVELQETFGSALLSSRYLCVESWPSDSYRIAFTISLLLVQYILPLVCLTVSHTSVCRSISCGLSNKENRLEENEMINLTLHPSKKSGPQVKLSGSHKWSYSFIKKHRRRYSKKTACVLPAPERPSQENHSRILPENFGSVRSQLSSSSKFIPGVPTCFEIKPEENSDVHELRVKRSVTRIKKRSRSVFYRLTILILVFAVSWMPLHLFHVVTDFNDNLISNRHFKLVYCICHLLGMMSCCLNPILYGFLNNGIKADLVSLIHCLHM
How it was run: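 IC50 is inhibition of specific [125I] peptide YY binding (60 pM final; non-specific defined by 200 nM peptide YY), read by gamma counting after filtration. Binding used stably transfected CHO-cell membranes with compound, 2 hours at 25° C, pH 7.4 HEPES-Hanks/0.1% BSA.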

human NPY Y5 receptor [2] = target: T3, human NPY Y5 receptor; test: cAMP production inhibitory activity in CHO cells; type: cell-based; details: against 50 nM NPY inhibition of forskolin stimulated cAMP, CHO cells expressing human NPY Y5 receptor
How it was run: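 Supernatant cAMP quantified by EIA after HCl stop, following 30 min stimulation with 10 μM forskolin and 50 nM NPY. Compound was added 5 min before stimulation to human NPY Y5-expressing CHO cells pretreated 20 min at 37 °C with 2.5 mM isobutylmethylxanthine.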

| IC50 (NPY Y1 receptor) [nM] | IC50 (NPY Y2 receptor) [nM] | IC50 (human NPY Y5 receptor [1]) [nM] | IC50 (human NPY Y5 receptor [2]) [nM] | Compound |
| --- | --- | --- | --- | --- |
| ≥ 100000 | ≥ 100000 | – | – | CCCCc1ccc(NC(=O)CCCNS(=O)(=O)C(C)(C)C)cc1 [Compound I-27] |
| ≥ 100000 | ≥ 100000 | – | – | CCCCc1ccc(C(=O)NC2CCC(NS(=O)(=O)C(C)(C)C)CC2)cc1 (stereo not shown) [Compound I-32] |
| ≥ 100000 | ≥ 100000 | 5.3 | 38.2 | CC(C)(C)S(=O)(=O)NC1CCC(C(=O)Nc2ccc(N3CCOCC3)cc2)CC1 (stereo not shown) [Compound I-41] |
| ≥ 100000 | ≥ 100000 | 1.2 | 27.9 | CC(C)(C)S(=O)(=O)NC1CCC(C(=O)Nc2ccc(N3CCCCC3)cc2)CC1 (stereo not shown) [Compound I-45] |
| ≥ 100000 | ≥ 100000 | 0.8 | 10.5 | CCn1c2ccccc2c2cc(NC(=O)C3CCC(NS(=O)(=O)C(C)(C)C)CC3)ccc21 (stereo not shown) [Compound I-46] |
| ≥ 100000 | ≥ 100000 | 0.6 | 14.9 | CC(C)(C)S(=O)(=O)NC1CCC(C(=O)Nc2ccc(I)cc2)CC1 (stereo not shown) [Compound I-47] |
| ≥ 100000 | ≥ 100000 | – | – | CC(C)(C)S(=O)(=O)NC1CCC(C(=O)Nc2ccc(F)cc2)CC1 (stereo not shown) [Compound I-48] |
| ≥ 100000 | ≥ 100000 | 0.4 | 8.1 | CC(C)(C)S(=O)(=O)NC1CCC(C(=O)Nc2ccc(N3CCCC3)cc2)CC1 (stereo not shown) [Compound I-49] |
| ≥ 100000 | ≥ 100000 | 0.1 | – | COc1ccc(NC(=O)C2CCC(NS(=O)(=O)C(C)(C)C)CC2)cc1 (stereo not shown) [Ia-16] |
| – | – | 1.9 | 60 | CC(C)(C)NC(=O)c1ccc(NC(=O)C2CCC(NS(=O)(=O)C(C)(C)C)CC2)cc1 (stereo not shown) [Ia-187] |
| – | – | 0.75 | 28 | CCC(C)NC(=O)c1ccc(NC(=O)C2CCC(NS(=O)(=O)C(C)(C)C)CC2)cc1 (stereo not shown) [Ia-188] |
| – | – | 3.5 | 95 | CC(C)(C)S(=O)(=O)NC1CCC(C(=O)Nc2cccc(NC(=O)C3CCCCC3)c2)CC1 (stereo not shown) [Ia-189] |
| – | – | 0.34 | 1000 | CC(C)(C)S(=O)(=O)NC1CCC(C(=O)Nc2ccc(NC(=O)C3CCCCC3)cc2)CC1 (stereo not shown) [Ia-190] |
| – | – | 0.49 | 220 | CC(C)NC(=O)c1ccc(NC(=O)c2ccc(NS(=O)(=O)C(C)(C)C)cc2)cc1 [Ia-191] |
| – | – | 5.9 | 200 | CC(C)NC(=O)c1cccc(NC(=O)C2CCC(NS(=O)(=O)C(C)C)CC2)c1 (stereo not shown) [Ia-192] |
| – | – | 1.4 | 43 | CC(C)NC(=O)c1ccc(NC(=O)C2CCC(NS(=O)(=O)C(C)C)CC2)cc1 (stereo not shown) [Ia-193] |
| – | – | 0.22 | 8.1 | CC(C)S(=O)(=O)NC1CCC(C(=O)Nc2ccc(-c3ccco3)cc2)CC1 (stereo not shown) [Ia-194] |
| – | – | 1.4 | 31 | CC(C)(C)S(=O)(=O)NC1CCC(C(=O)Nc2ccc(-c3cnco3)cc2)CC1 (stereo not shown) [Ia-195] |
| – | – | 0.39 | 1.3 | CC(C)S(=O)(=O)NC1CCC(C(=O)Nc2ccc(OCC3CC3)cc2)CC1 (stereo not shown) [Ia-196] |
| – | – | 0.44 | 2.5 | CC(C)S(=O)(=O)NC1CCC(C(=O)Nc2cccc(OCC3CC3)c2)CC1 (stereo not shown) [Ia-197] |
| – | – | 0.23 | 2.6 | CC(C)S(=O)(=O)NC1CCC(C(=O)Nc2ccc(OC3CCCC3)cc2)CC1 (stereo not shown) [Ia-198] |
| – | – | 3.1 | 74 | Cc1cc(C(=O)NC(C)C)ccc1NC(=O)C1CCC(NS(=O)(=O)C(C)(C)C)CC1 (stereo not shown) [Ia-201] |

| IC50 (NPY Y1 receptor) [nM] | IC50 (NPY Y2 receptor) [nM] | IC50 (human NPY Y5 receptor [1]) [nM] | IC50 (human NPY Y5 receptor [2]) [nM] | Compound |
| --- | --- | --- | --- | --- |
| – | – | 0.37 | 3.4 | CC(C)(C)S(=O)(=O)NC1CCC(C(=O)Nc2ccc(-c3cccs3)cc2)CC1 (stereo not shown) [Ia-202] |
| – | – | 0.2 | 2.6 | CC(C)(C)S(=O)(=O)NC1CCC(C(=O)Nc2ccc(C3CCCCC3)cc2)CC1 (stereo not shown) [Ia-203] |
| – | – | 1 | 6.3 | CC(C)S(=O)(=O)NC1CCC(C(=O)Nc2ccc(-c3ncco3)cc2)CC1 (stereo not shown) [Ia-204] |
| – | – | 2.4 | 99 | CC(C)(C)S(=O)(=O)NC1CCC(C(=O)Nc2ccc(OC3CCOC3)cc2)CC1 (stereo not shown) [Ia-205] |
| – | – | 1.9 | 460 | CC(C)(C)S(=O)(=O)NC1CCC(C(=O)Nc2ccc(OCC3CCCCO3)cc2)CC1 (stereo not shown) [Ia-206] |
| – | – | 0.55 | 5.9 | CC(C)(C)S(=O)(=O)NC1CCC(C(=O)Nc2cccc(N3CCCS3(=O)=O)c2)CC1 (stereo not shown) [Ia-207] |
| – | – | 1.2 | 9.7 | CC(C)(C)S(=O)(=O)NC1CCC(C(=O)Nc2ccc(N3CCCS3(=O)=O)cc2)CC1 (stereo not shown) [Ia-208] |
| – | – | 2.8 | 99 | CC(C)(C)S(=O)(=O)Nc1ccc(C(=O)Nc2ccc(-c3ccco3)cc2)cc1 [Ia-210] |
| – | – | 4.8 | 240 | CC(C)(C)S(=O)(=O)Nc1ccc(C(=O)Nc2ccc(-c3ncco3)cc2)cc1 [Ia-211] |
| – | – | 0.52 | 2.6 | CC(C)(C)S(=O)(=O)Nc1ccc(C(=O)Nc2ccc(OC3CCCC3)cc2)cc1 [Ia-212] |
| – | – | 0.91 | 28 | CC(C)(C)S(=O)(=O)Nc1ccc(C(=O)Nc2ccc(-c3cccs3)cc2)cc1 [Ia-213] |
| – | – | 2.5 | 28 | CC(C)(C)S(=O)(=O)NC1CCN(C(=O)Nc2ccc(C(F)(F)F)cc2)CC1 [Ia-219] |
| – | – | 0.47 | 1.5 | CC(C)(C)S(=O)(=O)NC1CCN(C(=O)Nc2ccc(C3CCCCC3)cc2)CC1 [Ia-221] |
| – | – | 3.7 | 18 | CC(C)S(=O)(=O)NC1CCN(C(=O)Nc2ccc(C(F)(F)F)cc2)CC1 [Ia-222] |
| – | – | 0.1 | 1.2 | CC(C)S(=O)(=O)NC1CCN(C(=O)Nc2ccc(C3CCCCC3)cc2)CC1 [Ia-224] |
| – | – | 3.4 | 20 | CC(C)(C)S(=O)(=O)NC1CCN(C(=O)Nc2ccc(OC3CCOCC3)cc2)CC1 [Ia-225] |
| – | – | 0.37 | 21 | CC(C)S(=O)(=O)NCCCCC(=O)Nc1ccc2c(c1)C(=O)N(c1ccccc1)C2=O [Ia-226] |
| – | – | 1.1 | 15 | CC(C)S(=O)(=O)NC1CCN(C(=O)Nc2ccc(OC3CCOCC3)cc2)CC1 [Ia-237] |
| – | – | 0.26 | 20 | CC(C)(C)S(=O)(=O)NC1CCC(C(=O)Nc2cccc(C3CCOCC3)c2)CC1 (stereo not shown) [Ia-246] |
| – | – | 0.79 | 31 | CC(C)(C)S(=O)(=O)NC1CCC(C(=O)Nc2ccc(C3(O)CCOCC3)cc2)CC1 (stereo not shown) [Ia-247] |
| – | – | 0.27 | 17 | CC(C)(C)S(=O)(=O)NC1CCC(C(=O)Nc2ccc(C3CCOCC3)cc2)CC1 (stereo not shown) [Ia-248] |
